Assay results published in patent publication US12546776B2, “Modulation of protein degradation” (Orionis Biosciences, Inc., priority 2019, dated 2026).
Values belong to the compound of their own block, whether it stands above or below them.

Columns and labels:
CRBN-ASS1 interaction [1] = molecular target: T1, CRBN-ASS1 interaction (Homo sapiens, UniProt Q96SW2); assay: Co-immunoprecipitation of Flag-ASS1 and HA-CRBN in HEK293T cells; format: cell-based; details: 1 μM and 3 μM, 24 hours
T1 construct: expressed in transfected cells; host or cells: HEK293T
Source text: FIGS. 3A-B Ligand-induced CRBN-ASS1 interaction in living cells—as assessed by co-immunoprecipitation analysis. In this study we examined the ability of Flag-tagged ASS1 (or Flag tagged gp130-ASS1 fusion protein, as identified in the assay described in FIG. 1) and HA-tagged CRBN to interact in living cells upon transfection and expression of each construct in HEK293T cells—in the presence or absence of the CRBN IMiD ligand CC220. Ability of HA-tagged CRBN to interact in response to CC220 with the known CRBN neosubstrate IKZF3 was also examined (with IKZF3 expressed as a Flag-tagged IKZF3 fusion protein). […] Western analysis was performed with an anti-HA antibody to determine extent of immunoprecipitated CRBN in each sample (expected to vary in dependence of CC220 exposure) and an anti-Flag antibody to determine extent of immunoprecipitated Flag-ASS1, Flag-gp130-ASS1 or Flag-IKZF3 in each sample (which would be expected to be the same). […]
In this study we assessed via co-immunoprecipitation of protein complexes the ability of the CRBN ligand CC220 to induce an interaction with ASS1 when expressed in HEK293 cells. […] FLAG-tagged ASS1 was detected using an anti-FLAG Ab (SIGMA) respectively (FIG. 3A, lower panel). […]

ASS1 = ASS1 (Homo sapiens, UniProt P00966+Q96SW2); assay: ASS1 degradation by Western blot in HEK293T cells co-transfected with FLAG-ASS1 and HA-CRBN; format: cell-based; details: 0.3-30 μM, 24 hours
Experimental: FIG. 4 Ligand-induced recruitment of ASS1 to CRBN is associated with degradation of ASS1 in living cells. In this study we examined whether ligand-induced recruitment of ASS1 to CRBN could lead to subsequent ASS1 degradation (as triggered by interaction with the CRBN E3 ligase). HEK293 cells were co-transfected with cDNA constructs encoding Flag-tagged ASS1 and HA-tagged CRBN and exposed to increasing concentration of CC220 for 24 hours. Samples were generated for Western blot analysis to determine steady state levels of ASS1 across the different experimental conditions, assessed using and anti-Flag antibody. As shown, loss of ASS1 expression (but not actin control protein expression) was observed specifically in response to CC220 exposure, and in a dose-dependent manner.
In this study we examined whether CC220 CRBN-ligand-induced recruitment of ASS1 to CRBN could lead to subsequent ASS1 degradation (as triggered by interaction with the CRBN E3 ligase). For this analysis, cells were transfected with FLAG-tagged ASS1 and HA-tagged CRBN encoding constructs, and any change in steady state levels of ASS1 in response to incubation of cells with CC220 for a specified time was assessed by Western blot analysis. […] Next, cells were lysed and a fraction of the lysate was analyzed via SDS-PAGE and Western Blot analysis with an anti-FLAG antibody (Sigma). […]

CRBN = molecular target: T2, CRBN (Homo sapiens, UniProt Q96SW2); assay: MAPPIT-like ligand competition assay for CRBN binding in HEK293T cells (trimethoprim-lenalidomide hybrid ligand, luciferase reporter); format: cell-based; details: competition for binding to CRBN
T2 construct: expressed in transfected cells; host or cells: HEK293T

CRBN-ASS1 interaction [2] = molecular target: T1, CRBN-ASS1 interaction; assay: MAPPIT cell microarray screen of ORF library for ligand-induced CRBN neosubstrates; format: cell-based; details: HEK293T cells, CC-220 at 10 μM, fluorescence reporter read 48 hours later
[3] = patients with AL amyloidosis during lenalidomide treatment; cited from earlier work

ASS1 steady state levels (Western blot, in words) (ASS1): decrease in a dose responsive manner
Compound: O=C1CC[C@H](N2Cc3c(OCc4ccc(CN5CCOCC5)cc4)cccc3C2=O)C(=O)N1 [CC-220]
recruitment of ASS1 into CRBN complex by co-immunoprecipitation (in words) (CRBN-ASS1 interaction [1]): specifically induces the recruitment of ASS1 into a CRBN-CC220 complex | inhibition of hybrid-ligand induced luciferase reporter activation (in words) (CRBN): specifically inhibit hybrid-ligand induced luciferase reporter activation in a dose dependent manner | ligand-induced ASS1 interaction with CRBN in cell microarray screen (in words) (CRBN-ASS1 interaction [2]): identified Argininosuccinate Synthase 1 (ASS1) as a novel CC220-induced CRBN neosubstrate

Compound: Nc1cccc2c1CN(C1CCC(=O)NC1=O)C2=O (stereo not drawn) [LEN, lenalidomide]
patients showing worsening of kidney function [3]: 66% | patients with severe kidney dysfunction [3]: 32%
